From patent US5091169A, “Dipyridoxyl phosphate NMRI contrast agent compositions” (priority 1989, dated 1992)
Like-named read-outs stand apart in the source and are kept apart here.

Columns and labels:
[1] = Excerpt: The compound DPDP was studied potentiometrically from pH 11.2 to 2.0. Data sets were collected on a custom-built automatic potentiometric titration apparatus composed of a METROHM 655 DOSIMAT automatic buret, a FISHER ACCUMET pH meter with a CORNING calomel combination electrode, a custom-blown water jacketed titration cell, a BRINKMAN LAUDA K-2/R constant temperature bath and a COMMODORE 64 computer. The BASIC computer program TITRATOR (Harris, W. et al, J.Am.Chem.Soc. 101:6534 (1979)) runs the apparatus. Data analysis was performed on an IBM-AT computer using the least squares program, BETA (Harris, W. et al, supra), and the data analysis program, HANDNBAR (Harris, W. et al, supra). The titrants were standardized by phenophthalein titration as follows: KOH was calibrated against potassium hydrogen phthalate (a primary standard), and HCl solutions were calibrated against the KOH standard. The Mn(II)Cl2 solution was standardized with an EDTA titration using Erichrome Black T as the indicator. All solutions were made from distilled, deionized water that was further purified on a MILLI-Q cartridge system, degassed, and then kept under an atmosphere of argon which had been scrubbed for CO2 and O2. Additions of EDTA and Mn(II) solutions were performed using calibrated GILMOT pipets. The electrode was calibrated in concentration units with degassed solutions of p[H+]=2.291 and 1.078 at 0.1 M ionic strength.
The metal complex titration was performed by adding 152.2 mg (0.2383 mmoles) to 74.6 ml of a high pH aqueous solution. 2.07 ml of a 0.1152 M Mn(II) solution (0.2386 mmoles) were added. The complex was then titrated to low pH with 1.002 N HCl.

[2] = 10 MHz, 37° C
Method: The relations of protons present in water and plasma exposed to the chelate product of Example 7 was tested by NMR for relaxities, in msec, at 10 MHz, 37° C.

selected body organs = details: 30 min, 10 MHz
Method: Each of four rabbits was injected intravenously with one of the following amounts of the solution obtained in Example 7: 0.01 mmoles/kg, 0.05 mmoles/kg, 0.10 mmoles/kg and 0.20 mmoles/kg. The rabbits were sacrificed 30 min post injection, and the proton relaxation values of selected body organs were measured with NMR, in vitro at 10 MHz.

Cc1ncc(COP(=O)(O)O)c(CN(CCN(CC(=O)[O-])Cc2c(COP(=O)(O)O)cnc(C)c2O)CC(=O)[O-])c1O.[Mn+2] [Mn(DPDP), manganese chelate complex of N,N'-bis-(pyridoxal-5-phosphate)ethylenediamine-N,N'-diacetic acid]
log Kf (formation constant) ([1]; Mn(II) chelate, titrated from pH 11.1 to 2.0): 14.8 | binding of Mn(II) ion ([1]; physiological pH): quantitatively bound to the chelating agent | pH below which chelate begins to demetallate ([1]; titration data): below 4.5 | T1 (Plasma) ([2]; 0.000039 Molar): 1103 ms | T1 (Plasma) ([2]; 0.000078 Molar): 995 ms | T1 (Plasma) ([2]; 0.000156 Molar): 856 ms | T1 (Water) ([2]; 0.000156 Molar): 1470 ms | T1 (Plasma) ([2]; 0.000312 Molar): 624 ms | T1 (Water) ([2]; 0.000312 Molar): 1083 ms | T1 (Plasma) ([2]; 0.000625 Molar): 398 ms | T1 (Water) ([2]; 0.000625 Molar): 639 ms | T1 (Plasma) ([2]; 0.00125 Molar): 240 ms | T1 (Water) ([2]; 0.00125 Molar): 332 ms | T1 (Plasma) ([2]; 0.0025 Molar): 139 ms | T1 (Water) ([2]; 0.0025 Molar): 175 ms | T2 (Plasma) ([2]; 0.0025 Molar): 124 ms | T1 (Plasma) ([2]; 0.005 Molar): 74 ms | T1 (Water) ([2]; 0.005 Molar): 100 ms | T2 (Plasma) ([2]; 0.005 Molar): 68 ms | T2 (Water) ([2]; 0.005 Molar): 86 ms | T1 (Plasma) ([2]; 0.010 Molar): 40 ms | T1 (Water) ([2]; 0.010 Molar): 43 ms | T2 (Plasma) ([2]; 0.010 Molar): 34 ms | T2 (Water) ([2]; 0.010 Molar): 41 ms | T1, Blood (selected body organs; 0.01 mmol/kg i.v.): 844 ms | T1, Brain (selected body organs; 0.01 mmol/kg i.v.): 554 ms | T1, Large Int. (selected body organs; 0.01 mmol/kg i.v.): 283 ms | T1, Liver (selected body organs; 0.01 mmol/kg i.v.): 176 ms | T1, Renal Cort. (selected body organs; 0.01 mmol/kg i.v.): 298 ms | T1, Renal Med. (selected body organs; 0.01 mmol/kg i.v.): 502 ms | T1, Small Int. (selected body organs; 0.01 mmol/kg i.v.): 324 ms | T1, Urine (selected body organs; 0.01 mmol/kg i.v.): 821 ms | T2, Brain (selected body organs; 0.01 mmol/kg i.v.): 76 ms | T2, Large Int. (selected body organs; 0.01 mmol/kg i.v.): 64 ms | T2, Liver (selected body organs; 0.01 mmol/kg i.v.): 39 ms | T2, Renal Cort. (selected body organs; 0.01 mmol/kg i.v.): 65 ms | T2, Renal Med. (selected body organs; 0.01 mmol/kg i.v.): 99 ms | T2, Small Int. (selected body organs; 0.01 mmol/kg i.v.): 72 ms | T1, Blood (selected body organs; 0.05 mmol/kg i.v.): 613 ms | T1, Brain (selected body organs; 0.05 mmol/kg i.v.): 496 ms | T1, Fat (selected body organs; 0.05 mmol/kg i.v.): 200 ms | T1, Heart (selected body organs; 0.05 mmol/kg i.v.): 353 ms | T1, Large Int. (selected body organs; 0.05 mmol/kg i.v.): 365 ms | T1, Liver (selected body organs; 0.05 mmol/kg i.v.): 76 ms | T1, Lung (selected body organs; 0.05 mmol/kg i.v.): 575 ms | T1, Renal Cort. (selected body organs; 0.05 mmol/kg i.v.): 210 ms | T1, Renal Med. (selected body organs; 0.05 mmol/kg i.v.): 223 ms | T1, Skel. Musc. (selected body organs; 0.05 mmol/kg i.v.): 494 ms | T1, Small Int. (selected body organs; 0.05 mmol/kg i.v.): 237 ms | T1, Stom. (selected body organs; 0.05 mmol/kg i.v.): 245 ms | T1, Urine (selected body organs; 0.05 mmol/kg i.v.): 150 ms | T2, Brain (selected body organs; 0.05 mmol/kg i.v.): 82 ms | T2, Fat (selected body organs; 0.05 mmol/kg i.v.): 139 ms | T2, Heart (selected body organs; 0.05 mmol/kg i.v.): 54 ms | T2, Large Int. (selected body organs; 0.05 mmol/kg i.v.): 83 ms | T2, Liver (selected body organs; 0.05 mmol/kg i.v.): 31 ms | T2, Lung (selected body organs; 0.05 mmol/kg i.v.): 113 ms | T2, Renal Cort. (selected body organs; 0.05 mmol/kg i.v.): 57 ms | T2, Renal Med. (selected body organs; 0.05 mmol/kg i.v.): 57 ms | T2, Skel. Musc. (selected body organs; 0.05 mmol/kg i.v.): 47 ms | T2, Small Int. (selected body organs; 0.05 mmol/kg i.v.): 52 ms | T2, Stom. (selected body organs; 0.05 mmol/kg i.v.): 41 ms | T2, Urine (selected body organs; 0.05 mmol/kg i.v.): 136 ms | T1, Blood (selected body organs; 0.10 mmol/kg i.v.): 506 ms | T1, Brain (selected body organs; 0.10 mmol/kg i.v.): 590 ms | T1, Fat (selected body organs; 0.10 mmol/kg i.v.): 183 ms | T1, Heart (selected body organs; 0.10 mmol/kg i.v.): 300 ms | T1, Large Int. (selected body organs; 0.10 mmol/kg i.v.): 290 ms | T1, Liver (selected body organs; 0.10 mmol/kg i.v.): 65 ms | T1, Lung (selected body organs; 0.10 mmol/kg i.v.): 435 ms | T1, Renal Cort. (selected body organs; 0.10 mmol/kg i.v.): 188 ms | T1, Renal Med. (selected body organs; 0.10 mmol/kg i.v.): 209 ms | T1, Skel. Musc. (selected body organs; 0.10 mmol/kg i.v.): 425 ms | T1, Small Int. (selected body organs; 0.10 mmol/kg i.v.): 218 ms | T1, Stom. (selected body organs; 0.10 mmol/kg i.v.): 242 ms | T1, Urine (selected body organs; 0.10 mmol/kg i.v.): 90 ms
